These results are taken from patent US9029400B2, “5-oxoisoxazoles as inhibitors of lipases and phospholipases” (Sanofi, priority 2007, dated 2015).

In general, IC50 refers to the concentration that gives 50% inhibition.

This test deals with T1, endothelial lipase (EL) (Homo sapiens, UniProt Q9Y5X9).
T1 construct: made in house; host or cells: recombinant CHO or HEK293 cell lines; concentrated conditioned medium used as enzyme solution
T1 sequence (Q9Y5X9 21-500): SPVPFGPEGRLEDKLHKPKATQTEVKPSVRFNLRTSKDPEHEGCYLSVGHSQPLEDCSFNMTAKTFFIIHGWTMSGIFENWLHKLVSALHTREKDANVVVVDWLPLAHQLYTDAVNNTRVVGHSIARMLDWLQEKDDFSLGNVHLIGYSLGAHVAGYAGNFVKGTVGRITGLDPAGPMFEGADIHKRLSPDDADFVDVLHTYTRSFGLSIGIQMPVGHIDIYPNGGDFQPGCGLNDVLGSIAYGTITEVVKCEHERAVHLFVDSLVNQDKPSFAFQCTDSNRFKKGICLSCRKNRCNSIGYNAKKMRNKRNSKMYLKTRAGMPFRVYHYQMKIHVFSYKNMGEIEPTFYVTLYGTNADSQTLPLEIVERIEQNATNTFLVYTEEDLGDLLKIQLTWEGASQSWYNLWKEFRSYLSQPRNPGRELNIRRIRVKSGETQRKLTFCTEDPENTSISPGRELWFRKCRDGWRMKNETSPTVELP
The test is described as follows: EL inhibition assay (endothelial lipase activity, fluorescent Bodipy phospholipid substrate). To be noted: 37° C., 90 minutes; enzyme from conditioned medium of recombinant cell lines (CHO, HEK293). It is filed as biochemical. As to the method:
The activity of the compounds of the invention of the formula I was tested in the following enzyme assay system: […]
EL is released as secretory protein in high concentration into cell culture medium (conditioned medium) by recombinant cell lines (CHO, HEK293). This is employed as enzyme solution after concentration.
The phospholipase-specific substrate 1,2-bis(4,4-difluoro-5,7-dimethyl-4-bora-3a,4a-diaza-s-indacene-3-undecanoyl)-sn-glycero-3-phosphocholine, (manufacturer Molecular Probes) is used to characterize the enzymatic activity of endothelial lipase and the effect of inhibitors. Hydrolysis of the A1 ester linkage of this phospholipid by the enzyme liberates a fatty acid labeled by the fluorescent dye Bodipy which can be detected after separation by thin-layer chromatography on an HPTLC plate (silica gel 60, Merck) or directly in the reaction vessel by measuring the fluorescence.
The substrate solution is prepared by dissolving 100 μg of 1,2-bis(4,4-difluoro-5,7-dimethyl-4-bora-3a,4a-diaza-s-indacene-3-undecanoyl)-sn-glycero-3-phosphocholine (manufacturer Molecular Probes) in 100 μl DMSO and taking it up in 2.4 mg of tripalmitin (Sigma) in 393 μl chloroform which contains 20 mg/ml DOP-choline (1,2-dioleoyl-sn-glycero-3-phosphocholine). 39.3 μl of this lipid mixture are transferred into a fresh reaction vessel and the solvent is evaporated. The lipid mixture is dissolved in 4 ml of 200 mM TRIS-HCl, 150 mM sodium chloride, pH=7.4, by sonication twice. The subsequent enzymic reaction takes place at 37° C. for 90 minutes. For this purpose, 20 μl of the substrate solution are incubated with 2 μl of inhibitor of appropriate concentration (dissolved in 10% DMSO, 10% strength DMSO solution is used as control) and 2 μl of enzyme solution (conditioned medium). Then 4 μl of the assay mixture are loaded onto an HPTLC plate (silica gel 60, Merck), and the liberated fluorescent dye is separated for detection with an eluent (diethyl ether:petroleum benzine:acetic acid [78:22:1]). After evaporation of the eluent, the plate is read in a fluorescence scanner. An increased release of the fluorescent dye in the uninhibited reaction is to be observed as a measure of the enzymic activity.
The enzymatic activity is reduced as a function of the inhibitor concentration used, and the inhibitor concentration at which a half-maximum enzymic activity is observed is called IC50.
For `Cc1cccc(CNC(=O)n2oc(=O)c3c2CCCC3)c1` [Example 40], the IC50 worked out at 0.053 µM.

Regarding `Cc1cccc(C)c1CNC(=O)n1oc(=O)c2c1CCCC2` [Example 39], the IC50 was 0.001 µM.

Turning to `Cc1c(C(C)C)c(=O)on1C(=O)NC1CCc2ccccc21` (stereo not drawn) [Example 10], the concentration for half-maximal inhibition (IC50) is 0.06 µM.

Regarding `Cc1ccccc1CNC(=O)n1oc(=O)c(C(C)C)c1C` [Example 6], the IC50 was 0.028 µM.

For `O=C(N[C@H]1CCc2ccccc21)n1oc(=O)cc1C1CC1` [Example 44], the IC50 came out at 0.5 µM.

With `Cc1ccc(CNC(=O)n2oc(=O)c(C(C)C)c2C)cc1C` [Example 16], the IC50 is 0.004 µM.

On to `Cc1ccc(CNC(=O)n2oc(=O)c3c2CCCC3)cc1` [Example 26], for which the IC50 amounted to 0.035 µM.

On to `Cc1c(C)n(C(=O)NC2CCc3ccccc32)oc1=O` (stereo not drawn) [Example 31], for which the IC50 amounted to 0.1 µM.

In the case of `Cc1c(C(C)C)c(=O)on1C(=O)NCc1cccs1` [Example 18], the concentration for half-maximal inhibition (IC50) stood at 14.1 µM.

`Cc1ccc(CNC(=O)n2oc(=O)c(C(C)C)c2C)cc1` [Example 7]: the IC50 was 0.9 µM.

On to `Cc1c(C(C)C)c(=O)on1C(=O)NCc1cc2ccccc2s1` [Example 8], for which the IC50 came out at 3.2 µM.

`Cc1ccc(CNC(=O)n2oc(=O)c3c2CCCC3)cc1C` [Example 25]: the IC50 was 0.009 µM.
